Test [1] relates to Human immunodeficiency virus 1. In words: Dissociation constant was measured against HIV-1 RNA construct K (present in HIV-1 RRE IIB RNA region). It is filed as functional.
Test [2] deals with Human immunodeficiency virus 1. In words: Dissociation constant was measured against HIV-1 RNA construct J (present in HIV-1 RRE IIB RNA region). Type of test: functional.
The subject of test [3] is Human immunodeficiency virus 1. Kind of test: Dissociation constant was measured against HIV-1 RNA construct I (present in HIV-1 RRE IIB RNA region). It is filed as functional.
For test [4], the system named is Human immunodeficiency virus 1. Kind of test: Dissociation constant was measured against HIV-1 RNA construct D (present in HIV-1 RRE IIB RNA region). It is filed as functional.
For test [5], the system named is Human immunodeficiency virus 1. Kind of test: Dissociation constant was measured against HIV-1 RNA construct A (present in HIV-1 RRE IIB RNA region). Type of test: functional.
For test [6], the system named is Human immunodeficiency virus 1. Kind of test: Dissociation constant was measured against HIV-1 RNA construct C (present in HIV-1 RRE IIB RNA region). Type of test: functional.
Test [7] has as its system Human immunodeficiency virus 1. In words: Dissociation constant was measured against HIV-1 RNA construct E (present in HIV-1 RRE IIB RNA region); N.B. = no measurable binding. It is filed as functional.
The subject of test [8] is Human immunodeficiency virus 1. In words: Dissociation constant was measured against HIV-1 RNA construct G (present in HIV-1 RRE IIB RNA region); N.B. = no measurable binding. Type of test: functional, organism-based.
Test [9] concerns Human immunodeficiency virus 1. Kind of test: Dissociation constant was measured against HIV-1 RNA construct F (present in HIV-1 RRE IIB RNA region); N.B. = no measurable binding. Type of test: functional, organism-based.
Test [10] has as its system Human immunodeficiency virus 1. In words: Dissociation constant was measured against HIV-1 RNA construct H (present in HIV-1 RRE IIB RNA region); N.B. = no measurable binding. It is filed as functional, organism-based.
Test [11] concerns Human immunodeficiency virus 1. Kind of test: Dissociation constant was measured against HIV-1 RNA construct B (present in HIV-1 RRE IIB RNA region). Type of test: functional.

As for `Cc1ccc2ccc(NC(=O)CCNCCNCCC(=O)Nc3ccc4ccc(C)nc4n3)nc2n1`, the dissociation constant (Kd) is 34.9 µM in test [1], 32.3 µM in [2] and 35.1 µM in test [3].

As for `Cc1ccc2ccc(NC(=O)CCN)nc2n1`, the Kd is 3.2 µM in [4]; 1.4 µM in test [5]; 2.9 µM in test [6]; “No binding” in test [7]; “No binding” in [8]; “No binding” in [9]. Further, the dissociation constant Kd entry in test [10] was “No binding”; in test [11], 2.4 µM.

The values above are taken from ChEMBL document CHEMBL1144309, “Specific recognition of napthyridine-based ligands toward guanine-containing bulges in RNA duplexes and RNA-DNA heteroduplexes” (Bioorg Med Chem Lett, 2005).
